The text below walks through data of patent US20250170240A1, “MODIFIED INVARIANT NATURAL KILLER T CELLS EXPRESSING A CHIMERIC ANTIGEN RECEPTOR AND USES THEREOF” (Tinkeso Therapeutics, Inc., priority 2022, published 2025).

Molecules are shown by their SMILES. Bounds are passed on as bounds.

The subject of experiment [1] is CD1d^+ target cells. Nature of the experiment: Luciferase-based killing assay, glycolipid- or DMSO-pulsed CD1d+ target cells. In kind it is cell-based, human. The settings on record: effector thawed iNKT47 CD19 CAR (allo), FIG. 13B. How it is done:
Luciferase-Based Killing Assay: αGalCer or DMSO pulsed target cells were prepared by incubating target cells (2×10^5/mL) at 37° C., 5% CO2 with αGalCer (200 ng/ml) or DMSO (1:500 of 10% stock) overnight and used for cytotoxicity assays after spinning to remove medium containing αGalCer or DMSO. Luciferase-expressing target cells (1×104 in 50 μL per well) were incubated with 50 μL of INKT cells per well at different effector T cell: target cell (E/T) ratios in quadruplicate in a 96-well flat-bottom white polystyrene microplate (Corning, Cat No. 3912). A spontaneous or maximal killing was set up by adding 50 μL per well of culture medium or 1% Triton X-100 instead of INKT cells, respectively. After a standard 4 h or 16 h (as indicated) incubation at 37° C., 10 μL of D-luciferin (1:10 of 30 mg/ml stock) or 50 μL (1:50 of 30 mg/mL) (Caliper Life Sciences, Cat No. XR-1001) was added to each well. Luciferase activity was measured using a Synergy 2 microplate reader (BioTek). Percent specific lysis was calculated as follows: […]

The subject of experiment [2] is CD1d^+ target cells. Nature of the experiment: Cytokine release assay (IFN-γ ELISA), glycolipid-pulsed CD1d+ target cells. The format is cell-based, human. The settings on record: pulsed MV4:11-hfflucN; 3-month cultured INKT47 CD19 CAR (allo) and iNKT48 CD19 CAR/GFP (allo); FIG. 13C. The procedure:
Cytokine Release Assays: Cytokine release assays were performed by co-culturing 1-2×10^5 T cells with 2×10^4 target cells per well in duplicate in 96-well flat-bottom plates. After 24 h, supernatants were assayed using a LEGEND MAX Human IFN-γ ELISA kit (BioLegend, Cat No. 430107).
(In general: In an ELISA, binding on a coated surface is turned into a signal by an enzyme label.)

In the case of `CCCCCCCCCCCCCC[C@@H](O)[C@@H](O)[C@H](CO[C@H]1O[C@H](CO)[C@H](O)[C@H](O)[C@H]1O)NC(=O)CCCCCCCCCCc1ccc(F)cc1` [7DW8-5], the entries for the “potency relative to αGalCer in sensitizing CD1d+ target cells” value in the experiment with CD1d^+ target cells [1] (Molm13) and in the experiment with CD1d^+ target cells [1] (THP1) were “at least 16 fold” and at least 64 fold, respectively. The “potency in stimulating iNKT cells to produce IFN-γ” value in the experiment with CD1d^+ target cells [2] is “more potent than αGalCer”.
